Measurements from patent publication US8378104B2 (OSI Pharmaceuticals, LLC, priority 2010, dated 2013).
Counter-ions that a name gives are not always drawn.

Target: T1, TAK1-TAB1 fusion protein (Homo sapiens, UniProt O43318)
T1 construct: purchased Carna
T1 sequence (O43318 with tags, fused parts or gaps limits assumed): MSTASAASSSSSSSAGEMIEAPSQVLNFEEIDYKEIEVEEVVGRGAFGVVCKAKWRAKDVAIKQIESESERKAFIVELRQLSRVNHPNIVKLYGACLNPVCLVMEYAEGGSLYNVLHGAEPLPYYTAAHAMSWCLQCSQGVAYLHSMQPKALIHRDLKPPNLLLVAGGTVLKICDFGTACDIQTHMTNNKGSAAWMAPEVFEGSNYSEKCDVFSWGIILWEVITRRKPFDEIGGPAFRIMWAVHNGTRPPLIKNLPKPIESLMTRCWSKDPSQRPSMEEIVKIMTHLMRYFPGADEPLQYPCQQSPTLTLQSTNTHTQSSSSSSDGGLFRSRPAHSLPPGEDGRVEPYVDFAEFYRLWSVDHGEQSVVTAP
Experiment: TAK1 biochemical assay (AlphaScreen, GST-MAP2K7 substrate)
Details: TAK1-TAB1 fusion protein, GST-MAP2K7 substrate; read-out: mean TAK1 IC50 (Col. A)

Row | SMILES | IC50 [nM]
1 | N#Cc1ccsc1-c1cnc(N)c2oc(-c3csc4cnccc34)cc12 [Example 383, 2-(7-amino-2-thieno[2,3-c]pyridin-3-yl-furo[2,3-c]pyridin-4-yl)-thiophene-3-carbonitrile] | > 10000
2 | CC(=O)N1CCC(n2cc(-c3cnc(N)c4oc(-c5c(C#CC(C)(C)O)sc6cnccc56)cc34)cn2)CC1 [Example 265, 1-[4-(4-{7-amino-2-[2-(3-hydroxy-3-methylbut-1-yn-1-yl)thieno[2,3-c]pyridin-3-yl]furo[2,3-c]pyridin-4-yl}-1H-pyrazol-1-yl)piperidin-1-yl]ethanone trifluoroacetate] | 100 to 1000
3 | CC(=O)N1CCC(n2cc(-c3cnc(N)c4oc(-c5ccc6c(c5)CC(=O)N6)cc34)cn2)CC1 [Example 103, 5-{4-[1-(1-acetylpiperidin-4-yl)-1H-pyrazol-4-yl]-7-aminofuro[2,3-c]pyridin-2-yl}-1,3-dihydro-2H-indol-2-one] | 1000 to 10000
4 | Nc1ccc(-c2cc3c(-c4cnn(C5CCNCC5)c4)cnc(N)c3o2)cn1 [Example 20, 2-(6-aminopyridin-3-yl)-4-[1-(piperidin-4-yl)-1H-pyrazol-4-yl]furo[2,3-c]pyridine-7-amine] | 1000 to 10000
5 | Nc1ncc(-c2cnn(C3CCNCC3)c2)c2cc(-c3cccc4cn[nH]c34)oc12 [Example 45, 2-(1H-indazol-7-yl)-4-[1-(piperidin-4-yl)-1H-pyrazol-4-yl]furo[2,3-c]pyridin-7-amine] | 100 to 1000
6 | CC(=O)N1CCC(n2cc(-c3cnc(N)c4oc(-c5cccc(OCc6ccccn6)c5)cc34)cn2)CC1 [Example 199, 1-[4-(4-{7-amino-2-[3-(Pyridin-2-ylmethoxy)phenyl]furo[2,3-c]pyridin-4-yl}-1H-pyrazol-1-yl)piperidin-1-yl]ethanone] | 1000 to 10000
7 | CCC(C)Oc1cccc(-c2cc3c(-c4cnn(C5CCN(C(C)=O)CC5)c4)cnc(N)c3o2)c1 (stereo not drawn) [Example 210] | > 10000
8 | Cc1cc(-c2cnc(N)c3oc(-c4csc5cnccc45)cc23)c(C)s1 [Example 377, 4-(2,5-dimethyl-thiophen-3-yl)-2-thieno[2,3-c]pyridin-3-yl-furo[2,3-c]pyridin-7-ylamine] | 1000 to 10000
9 | CCOc1cc2c(-c3cc4c(-c5cnn(C6CCN(C(C)=O)CC6)c5)cnc(N)c4o3)csc2cn1 [Example 245, 1-(4-{4-[7-amino-2-(5-ethoxythieno[2,3-c]pyridin-3-yl)furo[2,3-c]pyridin-4-yl]-1H-pyrazol-1-yl}piperidin-1-yl)ethanone bis(trifluoroacetate)] | 100 to 1000
10 | CC(=O)N1CCC(n2cc(-c3cnc(N)c4oc(-c5ccc(N)nc5)cc34)cn2)CC1 [Example 147, 1-(4-{4-[7-amino-2-(6-aminopyridin-3-yl)furo[2,3-c]pyridin-4-yl]-1H-pyrazol-1-yl}piperidin-1-yl)ethanone] | 100 to 1000
11 | Nc1ncc(-c2cnn(C3CCNCC3)c2)c2cc(-c3cccc(OC(F)(F)F)c3)oc12 [Example 22, 4-[1-(piperidin-4-yl)-1H-pyrazol-4-yl]-2-[3-(trifluoromethoxy)phenyl]furo[2,3-c]pyridine-7-amine] | > 10000
12 | CC(=O)N1CCC(n2cc(-c3cnc(N)c4oc(-c5cccc(OCC6CCCCC6)c5)cc34)cn2)CC1 [Example 209, 1-[4-(4-{7-amino-2-[3-(cyclohexylmethoxy)phenyl]furo[2,3-c]pyridin-4-yl}-1H-pyrazol-1-yl)piperidin-1-yl]ethanone] | > 10000
13 | COCc1ccccc1-c1cc2c(-c3cnn(C4CCN(C(C)=O)CC4)c3)cnc(N)c2o1 [Example 195, 1-[4-(4-{7-amino-2-[2-(methoxymethyl)phenyl]furo[2,3-c]pyridin-4-yl}-1H-pyrazol-1-yl)piperidin-1-yl]ethanone] | 1000 to 10000
14 | Nc1ncc(-c2cnn(CC(O)CO)c2)c2cc(-c3cccc4cnccc34)oc12 (stereo not drawn) [Example 66, 3-{4-[7-amino-2-(isoquinolin-5-yl)furo[2,3-c]pyridin-4-yl]-1H-pyrazol-1-yl}propane-1,2-diol] | 1000 to 10000
15 | CC(=O)N1CCC(n2cc(-c3cnc(N)c4oc(-c5cccc(C(F)(F)F)c5)cc34)cn2)CC1 [Example 185, 1-[4-(4-{7-amino-2-[3-(trifluoromethyl)phenyl]furo[2,3-c]pyridin-4-yl}-1H-pyrazol-1-yl)piperidin-1-yl]ethanone] | 1000 to 10000
16 | Nc1ncc(-c2cnn(C3CCNCC3)c2)c2cc(-c3cccnc3)oc12 [Example 26, 4-[1-(piperidin-4-yl)-1H-pyrazol-4-yl]-2-(yridine-3-yl)furo[2,3-c]pyridine-7-amine] | 1000 to 10000
17 | COc1ccc(COc2cccc(-c3cc4c(-c5cnn(C6CCN(C(C)=O)CC6)c5)cnc(N)c4o3)c2)cc1 [Example 182, 1-{4-[4-(7-amino-2-{3-[(4-methoxybenzyl)oxy]phenyl}furo[2,3-c]pyridin-4-yl)-1H-pyrazol-1-yl]piperidin-1-yl}ethanone] | 1000 to 10000

Row | SMILES | IC50 [nM]
18 | Nc1ncc(-c2cnn([C@H]3CC[C@H](O)CC3)c2)c2cc(-c3cccc4ncccc34)oc12 [Example 235, trans-4-{4-[7-amino-2-(quinolin-5-yl)furo[2,3-c]pyridin-4-yl]-1H-pyrazol-1-yl}cyclohexanol] | 1000 to 10000
19 | Nc1ncc(-c2cnn([C@H]3CC[C@H](O)CC3)c2)c2cc(-c3ccc4c(c3)CNC4=O)oc12 [Example 404, 5-{7-amino-4-[1-(trans-4-hydroxycyclohexyl)-1H-pyrazol-4-yl]furo[2,3-c]pyridin-2-yl}-2,3-dihydro-1H-isoindol-1-one] | 1000 to 10000
20 | CC(=O)N1CCC(n2cc(-c3cnc(N)c4oc(-c5cccc(Oc6ccccc6)c5)cc34)cn2)CC1 [Example 186, 1-(4-{4-[7-amino-2-(3-phenoxyphenyl)furo[2,3-c]pyridin-4-yl]-1H-pyrazol-1-yl}piperidin-1-yl)ethanone] | > 10000
21 | CCn1cc(-c2cnc(N)c3oc(-c4cccc5cnccc45)cc23)cn1 [Example 71, 4-(1-ethyl-1H-pyrazol-4-yl)-2-(isoquinolin-5-yl)furo[2,3-c]pyridin-7-amine] | 1000 to 10000
22 | CC(=O)N1CCC(n2cc(-c3cnc(N)c4oc(-c5ccc6cc[nH]c6c5)cc34)cn2)CC1 [Example 167, 1-(4-{4-[7-amino-2-(1H-indol-6-yl)furo[2,3-c]pyridin-4-yl}-1H-pyrazol-1-yl}piperidin-1-yl)ethanone] | 1000 to 10000
23 | Cc1c(-c2ccccc2)oc2c(N)ncc(-c3cnn(C4CCNCC4)c3)c12 [Example 9, methyl-2-phenyl-4-[1-(piperidin-4-yl)-1H-pyrazol-4-yl]furo[2,3-c]pyridin-7-amine hydrochloride] | 1000 to 10000
24 | CC(=O)N1CCC(n2cc(-c3cnc(N(C)C)c4oc(-c5csc6cnccc56)cc34)cn2)CC1 [Example 276, 1-(4-{4-[7-(dimethylamino)-2-(thieno[2,3-c]pyridin-3-yl)furo[2,3-c]pyridin-4-yl]-1H-pyrazol-1-yl}piperidin-1-yl)ethanone trifluoroacetic acid salt] | 1000 to 10000
25 | CC(=O)Nc1cccc(-c2cc3c(-c4cnn(C5CCN(C(C)=O)CC5)c4)cnc(N)c3o2)c1 [Example 137, N-(3-{4-[1-(1-acetylpiperidin-4-yl) 1H-pyrazol-4-yl]-7-aminofuro[2,3-c]pyridin-2-yl}phenyl)acetamide] | 1000 to 10000
26 | Cc1cc(-c2cnc(N)c3oc(-c4csc5cnccc45)cc23)cs1 [Example 393, 4-(5-methylthiophen-3-yl)-2-(thieno[2,3-c]pyridin-3-yl)furo[2,3-c]pyridin-7-amine trifluoroacetate] | 1000 to 10000
27 | CSc1nc2cccc(-c3cc4c(-c5cnn(C6CCN(C(C)=O)CC6)c5)cnc(N)c4o3)c2s1 [Example 352, 1-[4-(4-{7-amino-2-[2-(methylsulfanyl)-1,3-benzothiazol-7-yl]furo[2,3-c]pyridin-4-yl}-1H-pyrazol-1-yl)piperidin-1-yl]ethanone trifluoroacetate] | 1000 to 10000
28 | Nc1ncc(-c2cnn(C3CCNCC3)c2)c2cc(-c3cc(C(F)(F)F)cc(C(F)(F)F)c3)oc12 [Example 1, 2-{(3,5-Bis-trifluoromethyl)phenyl}-4-(1-piperidin-4-yl-1H-pyrazol-4-yl)-furo[2,3-c]pyridin-7-ylamine] | 1000 to 10000
29 | Nc1ncc(-c2cnn(C3CCNCC3)c2)c2c(Cl)c(-c3cccc4ccsc34)oc12 [Example 13, 2-(1-benzothiophen-7-yl)-3-chloro-4-[1-(piperidin-4-yl)-1H-pyrazol-4-yl]furo[2,3-c]pyridin-7-amine hydrochloride] | < 100
30 | CC(=O)N1CCC(n2cc(-c3cnc(N)c4oc(-c5cccc(C(=O)N6CCOCC6)c5)cc34)cn2)CC1 [Example 127, 1-[4-(4-{7-amino-2-[3-(morpholin-4-ylcarbonyl)phenyl]furo[2,3-c]pyridin-4-yl}-1H-pyrazol-1-yl)piperidin-1-yl]ethanone] | 1000 to 10000
31 | CC(=O)N1CCC(n2cc(-c3cnc(N)c4oc(-c5cccc(S(=O)(=O)N(C)C)c5)cc34)cn2)CC1 [Example 134, 3-{4-[1-(1-acetylpiperidin-4-yl)-1H-pyrazol-4-yl]-7-aminofuro[2,3-c]pyridin-2-yl}-N,N-dimethylbenzenesulfonamide] | 1000 to 10000
32 | Cc1nc(-c2cnc(N)c3oc(-c4csc5cnccc45)cc23)cs1 [Example 390, 4-(2-methyl-1,3-thiazol-4-yl)-2-(thieno[2,3-c]pyridin-3-yl)furo[2,3-c]pyridin-7-amine trifluoroacetate] | 1000 to 10000
33 | Nc1ncc(-c2cnn([C@H]3CC[C@H](O)CC3)c2)c2cc(-c3ccc4c(c3)CC(=O)N4)oc12 [Example 405, 5-{7-amino-4-[1-(trans-4-hydroxycyclohexyl)-1H-pyrazol-4-yl]furo[2,3-c]pyridin-2-yl}-1,3-dihydro-2H-indol-2-one] | 1000 to 10000
